Experimental findings from patent publication US6296785A, “Indeno-fused photochromic naphthopyrans” (PPG Industries Ohio, Inc., priority 2000, dated 2001) are described below.

Each structure is given as a SMILES string.

Common to all, as to format: physicochemical
Data set [1] can be described thus: photochromic response of test squares on an optical bench (sensitivity, saturation optical density, bleach rate). The conditions noted are these: for ΔOD @ Saturation (Band A) / ΔOD @ Saturation (Band B): UV exposure 15 minutes; for ΔOD @ Saturation (Band A) / Sensitivity ΔOD/MIN (Band A) / ΔOD @ Saturation (Band B) / Sensitivity ΔOD/MIN (Band B): 72° F. (22.2° C.), polymer test square; for Sensitivity ΔOD/MIN (Band A) / Sensitivity ΔOD/MIN (Band B): first five (5) seconds of UV exposure, expressed per minute; for Bleach Rate T 1/2: measured at band B, room temperature (72° F., 22.2° C.) after removal of activating light. The procedure: (§1) Testing was done with the photochromic compounds described in Examples 1 through 20 and Comparative Examples 1 through 3 in the following manner. A quantity of photochromic compound calculated to yield a 1.5×10^-3 molal solution was added to a flask containing 50 grams of a monomer blend of 4 parts ethoxylated bisphenol A dimethacrylate (BPA 2EO DMA), 1 part poly(ethylene glycol) 600 dimethacrylate, and 0.033 weight percent 2,2'-azobis(2-methyl propionitrile) (AIBN). The photochromic compound was dissolved into the monomer blend by stirring and gentle heating, if necessary. After a clear solution was obtained, it was poured into a flat sheet mold having the interior dimensions of 2.2 mm×6 inches (15.24 cm)×6 inches (15.24 cm). The mold was sealed and placed in a horizontal air flow, programmable oven programmed to increase the temperature from 40° C. to 95° C. over a 5 hour interval, hold the temperature at 95° C. for 3 hours, lower it to 60° C. over a 2 hour interval and then hold it at 60° C. for 16 hours. After the mold was opened, the polymer sheet was cut using a diamond blade saw into 2 inch (5.1 centimeters) test squares.
(§2) The photochromic test squares of Part A were tested for photochromic response rates on an optical bench. Prior to testing on the optical bench, the photochromic test squares were exposed to 365 nanometer ultraviolet light for about 15 minutes to activate the photochromic compounds and then placed into a 76° C. oven for about 15 minutes to bleach the photochromic compounds. The test squares were then cooled to room temperature, exposed to fluorescent room lighting for at least 2 hours and then kept covered for at least 2 hours prior to testing on an optical bench maintained at 72° F. (22.2° C.). The bench was fitted with a 250 watt Xenon arc lamp, a remote controlled shutter, a copper sulfate bath acting as a heat sink for the arc lamp, a Schott WG-320 nm cut-off filter which removes short wavelength radiation; neutral density filter(s) and a sample holder in which the square to be tested was inserted. The power output of the optical bench, i.e., the dosage of light that the sample lens would be exposed to, was calibrated with a photochromic test square used as a reference standard. […] The UV-A detector was placed into the sample holder and the light output was measured. Adjustments to the power output were made by increasing or decreasing the lamp wattage or by adding or removing neutral density filters in the light path.
A monitoring, collimated beam of light from a tungsten lamp was passed through the square at a small angle (approximately 30°) normal to the square. After passing through the square, the light from the tungsten lamp was directed to a detector through Spectral Energy Corp. GM-200 monochromator set at the previously determined visible lambda max of the photochromic compound being measured. The output signals from the detector were processed by a radiometer.
Change in optical density (ΔOD) was determined by inserting a test square in the bleached state into the sample holder, adjusting the transmittance scale to 100%, opening the shutter from the Xenon lamp to provide ultraviolet radiation to change the test square from the bleached state to an activated (i.e., darkened) state, measuring the transmittance in the activated state, and calculating the change in optical density according to the formula: ΔOD=log(100/% Ta), where % Ta is the percent transmittance in the activated state and the logarithm is to the base 10.
The ΔOD/Min, which represents the sensitivity of the photochromic compound's response to UV light, was measured over the first five (5) seconds of UV exposure, then expressed on a per minute basis. The saturation optical density (ΔOD@ Saturation) was taken under identical conditions as the ΔOD/Min, except UV exposure was continued for 15 minutes. […]

A short description of data set [2]: Relative ΔOD at Saturation Test. The settings on record: ΔOD at saturation (Band A)/ΔOD at saturation (Band B)×100.
Description: In accordance with the present invention, it has now been discovered that certain novel indeno[2,1-f]naphtho[1,2-b]pyrans having two absorption bands in the activated (colored) state, an acceptable fade rate, high activated intensity, a high coloration rate and a rating of 80 or higher in the Relative ΔOD at Saturation Test may be prepared. The Relative ΔOD at Saturation Test is described in Example 21. The ratings of the test are defined herein as the result obtained when the optical density of band "A" is divided by the optical density of band "B" and multiplied by 100. It is believed that compounds having a rating of 80 or higher are most valuable for formulating neutral grays, greens and browns for commercial photochromic ophthalmic eyeware.
as §1, §2
Change in optical density (ΔOD) was determined by inserting a test square in the bleached state into the sample holder, adjusting the transmittance scale to 100%, opening the shutter from the Xenon lamp to provide ultraviolet radiation to change the test square from the bleached state to an activated (i.e., darkened) state, measuring the transmittance in the activated state, and calculating the change in optical density according to the formula: ΔOD=log(100/% Ta), where % Ta is the percent transmittance in the activated state and the logarithm is to the base 10. […]

A short description of data set [3]: lambda max (Vis) of activated photochromic test squares in a Varian Cary 3 uv-visible spectrophotometer. The conditions noted are these: activated form in test square. The procedure: as §1
The lambda max (Vis) is the wavelength in the visible spectrum at which the maximum absorption of the activated (colored) form of the photochromic compound in a test square occurs. The lambda max (Vis) wavelengths reported in Table 1 were determined by testing the photochromic test square polymerizates of Part A in a Varian Cary 3 uv-visible spectrophotometer. The bleach rate (T 1/2) is the time interval in seconds for the absorbance of the activated form of the photochromic compound in the test squares to read one half the highest absorbance at room temperature (72° F., 22.2° C.) after removal of the source of activating light.
For each lambda max visible, the corresponding optical density (Δ OD/Min and Δ OD at saturation) for the desired compounds of the Examples and Comparative Examples are tabulated in Table 1 for the two bands (A and B) of peak absorption for each compound. Table 1 also includes the bleach rate (T 1/2) for each of the compounds as measured at band B. The ratings of the Relative Δ OD at Saturation Test for the bands A and B of each of the Examples and Comparative Examples are calculated as follows: Δ OD at saturation (Band A)/Δ OD at saturation (Band B)×100.

Turning to `CCC1(CC)c2cc(OC)c(OC)cc2-c2c1c1c(c3cc(OC)c(OC)cc23)OC(c2ccc(OC)cc2)(c2ccc(OC)cc2)C=C1` [Example 6, 3,3-di(4-methoxyphenyl)-6,7,10,11-tetramethoxy-13,13-diethyl-3H,13H-indeno[2,1-f]naphtho[1,2-b]pyran], in data set [1], the “ΔOD @ Saturation (Band A)” value is given as 1.02, the “Sensitivity ΔOD/MIN (Band A)” value is recorded as 0.46 ΔOD/MIN, the “ΔOD @ Saturation (Band B)” value came out at 0.73 and the “Sensitivity ΔOD/MIN (Band B)” value is 0.37 ΔOD/MIN. For the same molecule, the “Bleach Rate T 1/2” value in data set [1] stood at 5.17 min. In addition, the “Relative ΔOD at Saturation (rating)” value in data set [2] stood at 140. Besides, in data set [3], the “λ MAX Vis (Band A)” value amounted to 440 nm and the “λ MAX Vis (Band B)” value amounted to 608 nm.
Regarding `COc1ccc(C2(c3ccc(OC)cc3)C=Cc3c4c(c5cc(OC)c(OC)cc5c3O2)-c2ccccc2C4c2ccccc2)cc1` (stereo not shown) [Example 7, 3,3-di(4-methoxyphenyl)-6,7-dimethoxy-13-phenyl-3H,13H-indeno[2,1-f]naphtho[1,2-b]pyran], in data set [1], the “ΔOD @ Saturation (Band A)” value was found to be 0.66, the “Sensitivity ΔOD/MIN (Band A)” value is recorded as 0.17 ΔOD/MIN, the “ΔOD @ Saturation (Band B)” value is listed as 0.43 and the “Sensitivity ΔOD/MIN (Band B)” value was 0.16 ΔOD/MIN. For the same molecule, the “Bleach Rate T 1/2” value in data set [1] worked out at 3.43 min. Also, the “Relative ΔOD at Saturation (rating)” value in data set [2] came to 153. Besides, in data set [3], the “λ MAX Vis (Band A)” value was 460 nm and the “λ MAX Vis (Band B)” value came out at 577 nm.
For the molecule `COc1ccc(C2(c3ccc(N4CCOCC4)cc3)C=Cc3c4c(c5cc(OC)c(OC)cc5c3O2)-c2ccccc2C4c2ccccc2)cc1` (stereo not shown) [Example 8, 3-(4-methoxyphenyl)-3-(4-morpholinophenyl)-6,7-dimethoxy-13-phenyl-3H, 13H-indeno[2,1-f]naphtho[1,2-b]pyran], in data set [1], the “ΔOD @ Saturation (Band A)” value came to 0.43, the “Sensitivity ΔOD/MIN (Band A)” value is recorded as 0.14 ΔOD/MIN, the “ΔOD @ Saturation (Band B)” value amounted to 0.44 and the “Sensitivity ΔOD/MIN (Band B)” value is given as 0.18 ΔOD/MIN. Also, the “Bleach Rate T 1/2” value in data set [1] turned out to be 2.98 min. Further, in data set [2], the “Relative ΔOD at Saturation (rating)” value came out at 98. Also, in data set [3], the “λ MAX Vis (Band A)” value is given as 484 nm and the “λ MAX Vis (Band B)” value is 603 nm.
Regarding `COc1ccc(C2(c3ccc(N4CCOCC4)cc3)C=Cc3c4c(c5cc(OC)c(OC)cc5c3O2)-c2ccccc2C4(C)C)cc1` (stereo not shown) [Example 9, 3-(4-methoxyphenyl)-3-(4-morpholinophenyl)-6,7-dimethoxy-13,13-dimethyl-3H,13H-indeno[2,1-f]naphtho[1,2-b]pyran], in data set [1], the “ΔOD @ Saturation (Band A)” value is 0.60, the “Sensitivity ΔOD/MIN (Band A)” value is recorded as 0.18 ΔOD/MIN, the “ΔOD @ Saturation (Band B)” value turned out to be 0.59 and the “Sensitivity ΔOD/MIN (Band B)” value is 0.23 ΔOD/MIN. Moreover, in data set [1], the “Bleach Rate T 1/2” value is 3.4 min. Also, the “Relative ΔOD at Saturation (rating)” value in data set [2] amounted to 102. Also, in data set [3], the “λ MAX Vis (Band A)” value is on record as 477 nm and the “λ MAX Vis (Band B)” value is listed as 597 nm.
For the molecule `COc1ccc(C2(c3ccc(N(C)C)cc3)C=Cc3c4c(c5cc(OC)c(OC)cc5c3O2)-c2ccccc2C4(C)C)cc1` (stereo not shown) [Example 10, 3-(4-methoxyphenyl)-3-(4-dimethylaminophenyl)-6,7-dimethoxy-13,13-dimethyl-3H,13H-indeno[2,1-f]naphtho[1,2-b]pyran], in data set [1], the “ΔOD @ Saturation (Band A)” value turned out to be 0.41, the “Sensitivity ΔOD/MIN (Band A)” value was 0.20 ΔOD/MIN, the “ΔOD @ Saturation (Band B)” value worked out at 0.50 and the “Sensitivity ΔOD/MIN (Band B)” value was 0.28 ΔOD/MIN. For the same molecule, the “Bleach Rate T 1/2” value in data set [1] came out at 2.17 min. Besides, the “Relative ΔOD at Saturation (rating)” value in data set [2] is on record as 82. Besides, in data set [3], the “λ MAX Vis (Band A)” value turned out to be 500 nm and the “λ MAX Vis (Band B)” value was 615 nm.
For `COc1ccc(C2(c3ccc(OC)cc3)C=Cc3c4c(c5c(OC)c(OC)c(OC)cc5c3O2)-c2ccccc2C4c2ccccc2)cc1` (stereo not shown) [Example 11, 3,3-di(4-methoxyphenyl)-6,7,8-trimethoxy-13-phenyl-3H,13H-indeno[2,1-f]naphtho[1,2-b]pyran], in data set [1], the “ΔOD @ Saturation (Band A)” value turned out to be 0.66, the “Sensitivity ΔOD/MIN (Band A)” value is 0.28 ΔOD/MIN, the “ΔOD @ Saturation (Band B)” value is listed as 0.62 and the “Sensitivity ΔOD/MIN (Band B)” value is on record as 0.25 ΔOD/MIN. Further, the “Bleach Rate T 1/2” value in data set [1] came to 3.05 min. In addition, the “Relative ΔOD at Saturation (rating)” value in data set [2] was found to be 106. Besides, in data set [3], the “λ MAX Vis (Band A)” value is given as 482 nm and the “λ MAX Vis (Band B)” value was 581 nm.
Regarding `CCC1(O)c2cc(OC)c(OC)cc2-c2c1c1c(c3cc(OC)c(OC)cc23)OC(c2ccc(OC)cc2)(c2ccc(N3CCOCC3)cc2)C=C1` (stereo not shown) [Example 12, 3-(4-methoxyphenyl)-3-(4-morpholinophenyl)-6,7,10,11-tetramethoxy-13-hydroxy-13-ethyl-3H,13H-indeno[2,1-f]naphtho[1,2-b]pyran], in data set [1], the “ΔOD @ Saturation (Band A)” value was 0.46, the “Sensitivity ΔOD/MIN (Band A)” value was 0.26 ΔOD/MIN, the “ΔOD @ Saturation (Band B)” value stood at 0.43 and the “Sensitivity ΔOD/MIN (Band B)” value is 0.27 ΔOD/MIN. Also, in data set [1], the “Bleach Rate T 1/2” value amounted to 2.17 min. In addition, the “Relative ΔOD at Saturation (rating)” value in data set [2] was determined as 106. Moreover, in data set [3], the “λ MAX Vis (Band A)” value is 480 nm and the “λ MAX Vis (Band B)” value turned out to be 632 nm.
With `CCCCC1(O)c2cc(OC)c(OC)cc2-c2c1c1c(c3cc(OC)c(OC)cc23)OC(c2ccc(OC)cc2)(c2ccc(N3CCOCC3)cc2)C=C1` (stereo not shown) [Example 13, 3-(4-methoxyphenyl)-3-(4-morpholinophenyl)-6,7,10,11-tetramethoxy-13-hydroxy-13-butyl-3H,13H-indeno[2,1-f]naphtho[1,2-b]pyran], in data set [1], the “ΔOD @ Saturation (Band A)” value came to 0.39, the “Sensitivity ΔOD/MIN (Band A)” value is given as 0.27 ΔOD/MIN, the “ΔOD @ Saturation (Band B)” value turned out to be 0.37 and the “Sensitivity ΔOD/MIN (Band B)” value is given as 0.25 ΔOD/MIN. The “Bleach Rate T 1/2” value in data set [1] worked out at 1.42 min. Also, in data set [2], the “Relative ΔOD at Saturation (rating)” value was 105. For the same molecule, in data set [3], the “λ MAX Vis (Band A)” value was determined as 482 nm and the “λ MAX Vis (Band B)” value is 634 nm.
